How the values were obtained:
CTSC = CTSC (Homo sapiens, UniProt P53634); assay: Cellular thermal shift assay (CETSA) in U937 cells; format: binding; set-up: endogenous in cells; host or cells: U937; conditions: DMSO control 49 °C
Experimental: The Western blot experiments in this study were performed as described below. Cells in the logarithmic growth phase were collected in appropriate numbers according to different experimental purposes. After being thoroughly washed with phosphate-buffered saline and centrifuged, the cell pellets were resuspended in phosphate-buffered saline to obtain single-cell suspensions. Cells were fully lysed using RIPA buffer (Beyotime, P0013B) supplemented with EDTA-free protease and phosphatase inhibitor (Abcam, ab201120). Total cellular protein solutions were obtained after centrifugation to remove cell debris. The isolated proteins were quantified using the BeyoBCA protein assay kit (Beyotime, P0399M) following the operational protocol. The quantified protein samples were thoroughly mixed with protein loading buffer, boiled on a dry bath for 5 min, and then cooled to room temperature for Western blot analysis. […] Finally, enhanced chemiluminescent horseradish peroxidase substrate (Tanon Science & Technology Co., Ltd., Shanghai, China, 180-506) was used to visualize protein bands on a ChemiDoc XRS system (Bio-Rad Laboratories, Inc., Hercules, CA, USA), and the protein bands were quantified using Image Lab analysis software (Version 6.1) (Bio-Rad). […]

CTSC and NSPs = assay: AIA model, serum CTSC and NSPs activities, stated together; format: in vivo, Sprague-Dawley rats; conditions: rat AIA, low-dose (15 mg/kg) and medium-dose (30 mg/kg) groups
Experimental: (§1) Thirty 4-week-old male Sprague-Dawley rats (weighing 120–130 g) were randomly divided into 6 groups (5 rats per group) after 1 week of adaptive feeding, namely the normal group, model group, low-dose experimental group (15 mg/kg), medium-dose experimental group (30 mg/kg), high-dose experimental group (60 mg/kg), and positive control group (30 mg/kg). Starting from Day 0 of the experiment, rats in the administration groups and model group were injected intradermally with 0.1 mL of CFA into the left hind paw to induce AIA, while rats in the normal group were injected intradermally with an equal volume (0.1 mL) of normal saline as a control. After 13 consecutive days of feeding, rats treated with CFA successfully developed typical AIA symptoms. […] During the experiment, the body weight, mental state, activity ability, hair color changes, and paw appearance changes of the rats were observed and recorded daily. In addition, on Day 0 of the experiment (baseline period), the basic paw volume of all rats was accurately measured using a plethysmometer, which served as a reference standard for subsequent evaluation of inflammation severity. From Day 13 to Day 28 of the experiment, the paw volume of the rats was measured repeatedly every 3 days. The degree of paw swelling was quantified by calculating the change in paw volume relative to the baseline. […] The cytokine levels in serum were measured. […]

[1] = Cytotoxicity assay, RAW264.7 cell line; format: cell-based; conditions: mouse, RAW264.7 cells
Experimental: RAW264.7 cells and U937 cells in the logarithmic growth phase were counted and diluted, and the concentrations of the single-cell suspensions of the two types of cells were adjusted to 5 × 10^4 cells/mL and 3 × 10^4 cells/mL, respectively. After thorough mixing, the cells were seeded into a 96-well plate, with 100 μL of cell suspension added to each well. Prepare the working solution of test compounds using the corresponding medium as the solvent, with the concentration of working solution being 2 times the final test concentration (2.5 μM, 5 μM, 10 μM, 20 μM, and 40 μM). Twenty-four hours after cell seeding, the compound working solutions were added to the compound test wells, and the same volume of medium was added to the negative control wells, followed by continuous incubation for another 24 h. Only the wells with the same volume but without cells served as the blank control group. The CellTiter-Lumi™ luminescent cell viability assay kit (Beyotime Biotechnology, Shanghai, China, C0065XL) was used to detect cell viability according to the standard operating procedures. Each group of tests was independently repeated at least 3 times, and IC50 values were calculated using SPSS 10.0.

[2] = tested on: IL-1β, TNF-α, MCP-1, CXCL2 in serum; assay: AIA model, serum cytokines by ELISA; format: in vivo, Sprague-Dawley rats; conditions: rat AIA, high-dose group (60 mg/kg)
Experimental: as §1

CTSC, sequence (P53634 25-463): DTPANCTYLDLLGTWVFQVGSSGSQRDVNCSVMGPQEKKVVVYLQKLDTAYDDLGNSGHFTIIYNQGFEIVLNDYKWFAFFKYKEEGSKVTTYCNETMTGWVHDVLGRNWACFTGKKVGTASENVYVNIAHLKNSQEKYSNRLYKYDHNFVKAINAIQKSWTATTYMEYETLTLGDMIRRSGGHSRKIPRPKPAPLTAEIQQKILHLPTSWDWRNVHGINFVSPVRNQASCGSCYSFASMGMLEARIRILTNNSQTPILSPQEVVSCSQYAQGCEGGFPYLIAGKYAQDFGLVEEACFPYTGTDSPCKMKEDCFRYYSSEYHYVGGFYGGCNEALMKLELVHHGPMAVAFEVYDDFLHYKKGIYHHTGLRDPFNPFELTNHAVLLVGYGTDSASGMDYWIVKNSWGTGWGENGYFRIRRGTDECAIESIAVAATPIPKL

C[C@@H]1C[C@H]2OC(=O)[C@@]3(C)CCC[C@@](C)([C@@H]23)[C@@]1(O)CCc1ccoc1 [Marrubiin, marrubiin]
temperature at which significant CTSC degradation occurred (CTSC; 10 μM): approximately 61 °C
temperature at which significant CTSC degradation occurred (CTSC; 20 μM): ~67 °C
serum activities of CTSC and NSPs (CTSC and NSPs): no significant reduction effect
IC50 at 24 h [1]: > 10 µM
serum levels of IL-1β, TNF-α, MCP-1, CXCL2 [2]: significantly lower than those in model group and control group

Source: article PMC12610274, “Identification of Marrubiin as a Cathepsin C Inhibitor for Treating Rheumatoid Arthritis” (Molecules, 2025)
